Patent US20060233877A1, “Betaine compositions” (priority 2002, published 2006)
Several values for one entry are separate records, joined by “and”; a condition that tells them apart may be missing. Identical values can stand only once.

Key:
[1] = test system: laser-induced thrombosis in the mesenteric microcirculation of the rat; assay: Laser-induced thrombosis; type: in vivo, Rats Wistar; details: for Duration of embolisation / Number of emboli: ASA 50 mg/kg s.c.
Source text: Principle of Laser-Induced Thrombosis ([…]. et al., 1989; […]. et al., 1983) In this model, lesion of the vascular wall is induced by a laser beam. This beam causes a limited lesion of the vascular endothelium (only 1 to 2 cells are destroyed). This laying bare of the sub-endothelium, which is a thrombogenetic surface, results in the adherence of platelets via glycoproteins. This adherence of platelets is followed by their activation, they form pseudopods and secrete the content of their granules. This activation results in the appearance of glycoprotein binding sites which are necessary for the aggregation of the platelets between them and for platelet adhesion to the thrombogenic surfaces. This lesion is induced in the mesenteric microcirculation of the rat. It is immediately followed by the formation of a thrombus (in a few seconds). This thrombus, which rapidly enlarges under the influence of the blood flow, embolises before being formed again. The substances were subcutaneously injected 1 hour before the tests.

[2] = test system: platelet aggregation induced by ADP; assay: Aggregation tests (whole blood aggregometry, ADP 5 μM) after subcutaneous dosing; type: in vivo, Rats Wistar
[3] = test system: platelet adhesion and thrombus formation on collagen coated surface; assay: Parallel plate chamber: platelet adhesion and thrombus formation on collagen coated surface at 60 dynes/cm^2; type: cell-based, human
Source text: The synergistic effect of asa/betaine on platelet adhesion is studied by perfusing blood on thrombogenic surface such as collagen under shear stress conditions.
Effect of betaine, aspirin or betaine/aspirin combination on platelet adhesion and thrombus formation on collagen coated surface.
We studied the effect of asafbetaine on platelet adhesion and thrombus formation under laminar flow at high shear stress (60 dynes/cm^2) on a collagen coated surface. This high shear stress mimics stenosed arteries. The blood of four fastened healthy subjects was sampled on day 1 as to determine basal values and betaine effect when added in vitro (table1), then the subjects were orally administrated a daily oral bolus dose of 350 mg of ASA during 3 days and their blood sampled on day 3 as to determine ASA effect and ASA+betaine effect when betaine is added in vitro to aspirinized blood at different concentrations (table2).
Citrated human aspirinized blood was pre-labelled with mepacrine and exposed to vehicle alone or betaine (20, 40, and 80 μg/ml) for 20 minutes before perfusion.
The effect of asa/betaine has been evaluated by performing experiments 60 dynes/cm^2 witch mimics arterial thrombosis. Before perfusion citrated whole blood was incubated with saline alone or betaine at concentration of 20, 40, and 80 μg/ml for 20 minutes and then perfused on collagen at 60 dynes/cm^2 At the end of 2 minutes of perfusion, cells were fixed and the area covered by thrombi was calculated by analysis of fluorescent thrombus images acquired by confocal microscopy.
Collagen coated slides. Glass slides were with collagen (200 μg/ml; equine collagen), placed for 1 hour in a water bath at 37° C., and the collagen gel allowed to evaporate for 30 minutes under a ventilated hood. Perfusion with citrated whole blood was started and continued for 2 minutes, then blood was withdrawn from the circuit, and platelet thrombi adherent to the collagen coated surface were fixed and stained with May Grunwald-Giemsa.
Images of platelet thrombi were digitised using a light microscope connected to a computer-based image analysis system. The surface occupied by thrombi and mean thrombus area were evaluated by automatic edge detection using built-in specific functions of a software image.
Platelet adhesion and thrombus formation. Platelet adhesion assay was performed according to the described previously (Alevriadou et al., 1993; Boccardo et al., 1997) with minor modifications. Blood collected on citrate (3,8%) was perfused through a flow chamber using a syringe pump. A flow chamber thermostatized to 37° C. was used in which one surface of the perfusion channel is a glass slide coated with equine collagen.
Flow chamber. The chamber dimensions (30 mm long, 1 mm large, and 150 μm in the thickness) allow to obtain a wide range of shear rate low flow rates of blood.
Citrated whole blood was incubated with the fluorescent dye mepacrine 10 μM (quinacrine dihydrochloride BP; Sigma Chemical, St Louis. MO). Mepacrine concentrated in the dense granules of platelets and in the granules of leukocytes and, at this concentration has no effect on normal platelet function (3). Any fluorescence within the erythrocytes is quenched by haemoglobin. Blood was pre-incubated 5 minutes at 37° C. before perfusion. The system was filled with PBS pH 7.3, then perfusion with blood was started and maintained at the constant flow rate of 1500 sec^−1 (corresponding to a shear stress of 60 dynes/cm^2). After 2 min, perfusion was stopped and the slide with the collagen monolayer was dehydrated and fixed in acetone for 20 minutes.
Images of platelet thrombi on collagen surface were acquired by a confocal inverted laser microscope. The surface occupied by thrombi was evaluated by automatic edge detection using built-in specific functions of a software image.

[4] = cited from earlier work
[5] = Solubility in water / concentrated betaine solution; type: physicochemical
[6] = experiment A, ASA 100 mg/kg s.c.
[7] = experiment A, ASA 100 mg/kg s.c., mean
[8] = experiment B, ASA 50 mg/kg s.c.
[9] = experiment B, ASA 50 mg/kg s.c., mean

**Q.** Which “Number of laser shoots” value ([1]; experiment A, ASA 100 mg/kg s.c. 1 hour before, rats 1-5 and mean) does the source give for CC(=O)Oc1ccccc1C(=O)O [ASA, acetylsalicylic acid] here?
**A.** 4 and 3

**Q.** What about the “Number of laser shoots” value ([1]; experiment A, ASA 100 mg/kg s.c. 1 hour before, rats 1-5 and mean, mean) of the same molecule?
**A.** 3.2 ± 0.45

**Q.** What about the Duration of embolisation ([1]; experiment B) of the same molecule?
**A.** 4 min and 3 min and 2 min

**Q.** What about the Number of emboli ([1]; experiment B) of the same molecule?
**A.** 3 and 4

**Q.** And the “Number of laser shoots” value ([1]; experiment B, ASA 50 mg/kg s.c. 1 hour before, n=6 rats and mean)?
**A.** 2 and 3

**Q.** What about the “Number of laser shoots” value ([1]; experiment B, ASA 50 mg/kg s.c. 1 hour before, n=6 rats and mean, mean) of the same molecule?
**A.** 2.33

**Q.** And the Duration of embolisation ([1]; experiment B, mean)?
**A.** 2.5 min

**Q.** And the Number of emboli ([1]; experiment B, mean)?
**A.** 3.33

**Q.** What about the Number laser shoots ([1]; experiment C, ASA 100 mg/kg s.c. 1 hour before, 6 rats and mean) of the same molecule?
**A.** 4 and 3 and 2

**Q.** What about the Amplitude [2, 6] of the same molecule?
**A.** 2 ohm and 3 ohm and 4 ohm

**Q.** What about the velocity [2, 6] of the same molecule?
**A.** 4 ohm/min and 3 ohm/min and 5 ohm/min

**Q.** What about the Amplitude [2, 7] of the same molecule?
**A.** 2.6 ± 0.89 ohm

**Q.** What about the velocity [2, 7] of the same molecule?
**A.** 3.8 ± 0.84 ohm/min

**Q.** What about the Amplitude [2, 8] of the same molecule?
**A.** 8 Ohm and 9 Ohm and 10 Ohm and 7 Ohm

**Q.** What about the velocity [2, 8] of the same molecule?
**A.** 7 Ohm/min and 8 Ohm/min and 9 Ohm/min and 6 Ohm/min

**Q.** And the Amplitude [2, 9]?
**A.** 8.5 Ohm

**Q.** And the velocity [2, 9]?
**A.** 7.33 Ohm/min

**Q.** What about the “area covered by thrombi” value ([3]; aspirinized blood (350 mg ASA oral daily, 3 days) + saline) of the same molecule?
**A.** 72856 pixels/field and 121321 pixels/field and 132458 pixels/field and 122652 pixels/field

**Q.** And the solubility in water [4]?
**A.** about 0.3%

**Q.** Which “area covered by thrombi” value ([3]; betaine 20 μg/ml in vitro, 20 minutes, subjects 1-4 and mean, monohydrate) does the source give for C[N+](C)(C)CC(=O)O [betaine, Betaine monohydrate] here?
**A.** 88746 pixels/field and 135241 pixels/field and 122369 pixels/field and 154425 pixels/field

**Q.** What about the “area covered by thrombi” value ([3]; betaine 40 μg/ml in vitro, 20 minutes, monohydrate) of the same molecule?
**A.** 66852 pixels/field and 92433 pixels/field and 89628 pixels/field and 95645 pixels/field

**Q.** What about the “area covered by thrombi” value ([3]; betaine 80 μg/ml in vitro, 20 minutes, monohydrate) of the same molecule?
**A.** 57544 pixels/field and 81585 pixels/field and 76654 pixels/field and 82579 pixels/field

**Q.** What about the “reduction in platelet deposition in respect to vehicle” value ([3]; betaine 80 μg/ml, Table 1) of the same molecule?
**A.** −49%

**Q.** And the “effect on platelet deposition and thrombus formation” value ([3]; high shear stress, versus vehicle-treated blood)?
**A.** significantly inhibit platelet deposition and consequent thrombus formation

**Q.** For O=C(O)c1ccccc1O [salicylic acid], which “amount that can be dissolved” value ([5]; cold concentrated betaine solution) is on record?
**A.** Up to 5%

**Q.** And the “amount dissolved relative to pure water” value ([5]; cold concentrated betaine solution vs pure water)?
**A.** 15 times
